Converted amounts (≈) assume the structure as drawn.
Columns and labels:
[1] = biological target: DNA gyrase subunit B (Mycobacterium smegmatis, UniProt P0C559); assay: Inhibition of Mycobacterium smegmatis GyrB ATPase activity expressed in Escherichia coli BL21 (DE3) pLysS cells after 100 mins by inorganic phosphate release detection based malachite green reagent assay; parameters: species or system Mycolicibacterium smegmatis
[2] = Cytotoxicity against mouse RAW264.7 cells assessed as inhibition of cell growth at 50 uM after 48 hrs by MTT assay; type: cell-based; settings: read-out: GI
[3] = system: Mycobacterium tuberculosis; assay: Antimycobacterial activity against Mycobacterium tuberculosis H37Rv ATCC 27294 incubated for 7 days by microplate alamar blue assay method; type: functional; settings: H37Rv ATCC 27294, 168 h
[4] = biological target: DNA gyrase subunit A/DNA gyrase subunit B (Mycobacterium tuberculosis (strain ATCC 25618 / H37Rv), UniProt P9WG45+P9WG47); assay: Inhibition of Mycobacterium tuberculosis GyrA/GyrB using relaxed pBR322 substrate incubated for 30 mins by ethidium bromide staining and electrophoresis based DNA supercoiling assay
Chain of DNA gyrase subunit A/DNA gyrase subunit B (P9WG45 whole entry): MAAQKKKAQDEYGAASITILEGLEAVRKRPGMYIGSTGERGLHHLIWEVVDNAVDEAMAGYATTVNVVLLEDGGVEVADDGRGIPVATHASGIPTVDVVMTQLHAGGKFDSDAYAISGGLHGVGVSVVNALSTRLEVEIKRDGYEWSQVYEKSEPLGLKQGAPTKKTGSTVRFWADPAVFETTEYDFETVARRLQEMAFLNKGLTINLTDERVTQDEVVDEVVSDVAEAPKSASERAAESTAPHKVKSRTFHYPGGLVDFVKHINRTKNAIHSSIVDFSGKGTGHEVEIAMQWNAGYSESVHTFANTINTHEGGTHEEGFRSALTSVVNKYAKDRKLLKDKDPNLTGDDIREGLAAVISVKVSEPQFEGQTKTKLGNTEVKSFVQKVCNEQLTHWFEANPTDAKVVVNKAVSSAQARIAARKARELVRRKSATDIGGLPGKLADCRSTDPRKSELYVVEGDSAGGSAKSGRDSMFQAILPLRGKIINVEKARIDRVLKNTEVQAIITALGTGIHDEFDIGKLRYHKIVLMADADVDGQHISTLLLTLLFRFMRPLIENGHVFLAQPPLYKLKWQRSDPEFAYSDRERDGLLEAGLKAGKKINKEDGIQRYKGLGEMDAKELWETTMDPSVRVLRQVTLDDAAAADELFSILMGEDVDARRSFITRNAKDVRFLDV
Chain of DNA gyrase subunit A/DNA gyrase subunit B (P9WG47 whole entry): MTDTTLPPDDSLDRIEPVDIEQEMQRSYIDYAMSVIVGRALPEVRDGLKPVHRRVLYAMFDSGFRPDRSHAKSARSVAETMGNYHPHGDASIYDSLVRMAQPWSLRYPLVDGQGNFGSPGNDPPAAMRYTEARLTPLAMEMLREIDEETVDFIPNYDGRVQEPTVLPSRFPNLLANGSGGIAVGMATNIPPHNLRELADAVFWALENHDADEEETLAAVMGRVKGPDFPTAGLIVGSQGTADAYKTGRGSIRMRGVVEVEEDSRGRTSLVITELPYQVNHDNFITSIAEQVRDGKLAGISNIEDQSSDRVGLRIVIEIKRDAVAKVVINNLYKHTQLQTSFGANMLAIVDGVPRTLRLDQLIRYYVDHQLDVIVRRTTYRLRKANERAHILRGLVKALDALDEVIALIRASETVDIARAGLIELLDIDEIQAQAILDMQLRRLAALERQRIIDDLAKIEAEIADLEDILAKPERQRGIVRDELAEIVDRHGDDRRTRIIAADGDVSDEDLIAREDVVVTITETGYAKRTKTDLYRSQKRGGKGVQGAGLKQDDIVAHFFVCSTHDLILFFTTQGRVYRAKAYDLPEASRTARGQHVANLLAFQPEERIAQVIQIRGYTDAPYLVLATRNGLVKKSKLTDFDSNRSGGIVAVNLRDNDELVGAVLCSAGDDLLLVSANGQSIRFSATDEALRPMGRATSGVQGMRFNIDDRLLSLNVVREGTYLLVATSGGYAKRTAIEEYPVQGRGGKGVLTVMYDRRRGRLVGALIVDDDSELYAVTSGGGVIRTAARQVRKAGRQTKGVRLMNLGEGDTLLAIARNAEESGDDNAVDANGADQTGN

Chain of DNA gyrase subunit B (P0C559 whole entry): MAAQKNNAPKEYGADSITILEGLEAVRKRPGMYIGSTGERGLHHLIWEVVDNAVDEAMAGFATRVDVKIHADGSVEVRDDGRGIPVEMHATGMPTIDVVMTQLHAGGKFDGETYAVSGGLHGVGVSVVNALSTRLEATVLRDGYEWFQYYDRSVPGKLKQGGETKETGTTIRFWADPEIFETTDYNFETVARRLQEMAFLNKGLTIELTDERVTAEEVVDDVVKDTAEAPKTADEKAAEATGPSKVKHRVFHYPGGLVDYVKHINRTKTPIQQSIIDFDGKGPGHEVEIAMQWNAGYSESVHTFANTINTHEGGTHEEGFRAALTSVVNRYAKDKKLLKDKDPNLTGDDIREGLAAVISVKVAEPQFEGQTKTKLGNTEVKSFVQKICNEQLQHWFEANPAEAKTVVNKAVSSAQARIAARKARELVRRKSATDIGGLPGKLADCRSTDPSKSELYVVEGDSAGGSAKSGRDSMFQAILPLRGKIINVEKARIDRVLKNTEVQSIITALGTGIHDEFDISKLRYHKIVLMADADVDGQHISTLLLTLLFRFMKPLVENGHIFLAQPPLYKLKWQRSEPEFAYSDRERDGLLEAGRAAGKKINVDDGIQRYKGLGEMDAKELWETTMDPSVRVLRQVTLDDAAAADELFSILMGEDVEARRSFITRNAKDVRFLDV

## Cc1cc(N2CCC(NC(=S)Nc3ccccc3)CC2)c2ccccc2n1
[1]
  IC50: 12.7 µM
[2]
  inhibition at 48 h, 50 µM: 11.8%
[3]
  MIC: 16.6 µM (≈ 6.25 µg/mL)
[4]
  IC50: 9.4 µM

## COc1ccc(NC(=S)NC2CCN(c3cc(C)nc4ccc(F)cc34)CC2)cc1
[1]
  IC50: 39.5 µM
[2]
  inhibition at 48 h, 50 µM: 21.3%
[3]
  MIC: 31.7 µM (≈ 13.4 µg/mL)
[4]
  IC50: 17.8 µM

## Cc1ccc(NC(=O)NC2CCN(c3cc(C)nc4ccc(C(F)(F)F)cc34)CC2)cc1
[1]
  IC50: 16.6 µM
[2]
  inhibition at 48 h, 50 µM: 16.2%
[3]
  MIC: 28.1 µM (≈ 12.4 µg/mL)
[4]
  IC50: 9.2 µM

## Cc1cc(N2CCC(NC(=S)Nc3ccc(Cl)cc3)CC2)c2ccccc2n1
[1]
  IC50: 12.3 µM
[2]
  inhibition at 48 h, 50 µM: 20.8%
[3]
  MIC: 15.2 µM (≈ 6.25 µg/mL)
[4]
  IC50: 8.12 µM

## Cc1cc(N2CCC(NC(=S)Nc3ccc([N+](=O)[O-])cc3)CC2)c2cc(F)ccc2n1
[1]
  IC50: 56.1 µM
[2]
  inhibition at 48 h, 50 µM: 40.7%
[3]
  MIC: 63.3 µM (≈ 27.8 µg/mL)
[4]
  IC50: 25.5 µM

## Cc1cc(N2CCC(NC(=O)Nc3ccc(F)cc3)CC2)c2cc(F)ccc2n1
[1]
  IC50: 1.78 µM
[2]
  inhibition at 48 h, 50 µM: 25.4%
[3]
  MIC: 3.82 µM (≈ 1.51 µg/mL)
[4]
  IC50: 0.78 µM

## Cc1cc(N2CCC(NC(=O)Nc3ccc([N+](=O)[O-])cc3)CC2)c2cc(C(F)(F)F)ccc2n1
[1]
  IC50: 47.6 µM
[2]
  inhibition at 48 h, 50 µM: 48.2%
[3]
  MIC: 52.2 µM (≈ 24.7 µg/mL)
[4]
  IC50: 22.3 µM

## Cc1cc(N2CCC(NC(=O)Nc3ccc([N+](=O)[O-])cc3)CC2)c2ccccc2n1
[1]
  IC50: 17 µM
[2]
  inhibition at 48 h, 50 µM: 30.4%
[3]
  MIC: 15.4 µM (≈ 6.25 µg/mL)
[4]
  IC50: 10.6 µM

## Cc1cc(N2CCC(NC(=S)Nc3ccc(F)cc3)CC2)c2cc(F)ccc2n1
[1]
  IC50: 45.9 µM
[2]
  inhibition at 48 h, 50 µM: 33.9%
[3]
  MIC: 63.3 µM (≈ 26.1 µg/mL)
[4]
  IC50: 23.5 µM

## Cc1cc(N2CCC(NC(=O)Nc3ccc(Cl)cc3)CC2)c2cc(F)ccc2n1
[1]
  IC50: 49 µM
[2]
  inhibition at 48 h, 50 µM: 49.7%
[3]
  MIC: 50.8 µM (≈ 21 µg/mL)
[4]
  IC50: 29.6 µM

## Cc1cc(N2CCC(NC(=O)Nc3ccc([N+](=O)[O-])cc3)CC2)c2cc(F)ccc2n1
[1]
  IC50: 6.83 µM
[2]
  inhibition at 48 h, 50 µM: 47.9%
[3]
  MIC: 9.52 µM (≈ 4.03 µg/mL)
[4]
  IC50: 2.14 µM

## Cc1cc(N2CCC(NC(=S)Nc3ccc([N+](=O)[O-])cc3)CC2)c2cc(C(F)(F)F)ccc2n1
[1]
  IC50: 41.8 µM
[2]
  inhibition at 48 h, 50 µM: 19.8%
[3]
  MIC: 51.1 µM (≈ 25 µg/mL)
[4]
  IC50: 7.54 µM

## CO[C@H]1/C=C/O[C@@]2(C)Oc3c(C)c(O)c4c(O)c(c(/C=N/N5CCN(C)CC5)c(O)c4c3C2=O)NC(=O)/C(C)=C\C=C\[C@H](C)[C@H](O)[C@@H](C)[C@@H](O)[C@@H](C)[C@H](OC(C)=O)[C@@H]1C [RIFAMPIN]
[3]
  MIC: 0.23 µM (≈ 0.189 µg/mL)

## Cc1cc(N2CCC(NC(=S)Nc3ccc(Cl)cc3)CC2)c2cc(C(F)(F)F)ccc2n1
[1]
  IC50: 16.5 µM
[2]
  inhibition at 48 h, 50 µM: 11.8%
[3]
  MIC: 30.7 µM (≈ 14.7 µg/mL)
[4]
  IC50: 4.12 µM

## COc1ccc2nc(C)cc(N3CCC(NC(=O)Nc4ccc(Cl)cc4)CC3)c2c1
[1]
  IC50: 16.2 µM
[2]
  inhibition at 48 h, 50 µM: 42.4%
[3]
  MIC: 17.4 µM (≈ 7.37 µg/mL)
[4]
  IC50: 14.3 µM

## COc1ccc2nc(C)cc(N3CCC(NC(=S)Nc4ccc(F)cc4)CC3)c2c1
[1]
  IC50: 8.7 µM
[2]
  inhibition at 48 h, 50 µM: 29.3%
[3]
  MIC: 14.7 µM (≈ 6.25 µg/mL)
[4]
  IC50: 2.31 µM

## Cc1cc(N2CCC(NC(=O)Nc3ccccc3)CC2)c2cc(C(F)(F)F)ccc2n1
[1]
  IC50: 14.9 µM
[2]
  inhibition at 48 h, 50 µM: 20.1%
[3]
  MIC: 29.4 µM (≈ 12.6 µg/mL)
[4]
  IC50: 8.3 µM

## Cc1ccc(NC(=S)NC2CCN(c3cc(C)nc4ccc(F)cc34)CC2)cc1
[1]
  IC50: 59.3 µM
[2]
  inhibition at 48 h, 50 µM: 23.9%
[3]
  MIC: 67.9 µM (≈ 27.8 µg/mL)
[4]
  IC50: 25.4 µM

## Cc1cc(N2CCC(NC(=O)Nc3ccc(Cl)cc3)CC2)c2ccccc2n1
[1]
  IC50: 12.9 µM
[2]
  inhibition at 48 h, 50 µM: 40.1%
[3]
  MIC: 7.91 µM (≈ 3.12 µg/mL)
[4]
  IC50: 8.2 µM

## COc1ccc(NC(=O)NC2CCN(c3cc(C)nc4ccccc34)CC2)cc1
[1]
  IC50: 22 µM
[2]
  inhibition at 48 h, 50 µM: 49.5%
[3]
  MIC: 32 µM (≈ 12.5 µg/mL)
[4]
  IC50: 18.5 µM

## COc1c(N2C[C@@H]3CCCN[C@@H]3C2)c(F)cc2c(=O)c(C(=O)O)cn(C3CC3)c12 [MOXIFLOXACIN]
[1]
  IC50: > 50 µM
[3]
  MIC: 1.26 µM (≈ 0.506 µg/mL)

## COc1ccc2nc(C)cc(N3CCC(NC(=O)Nc4ccccc4)CC3)c2c1
[1]
  IC50: 12.2 µM
[2]
  inhibition at 48 h, 50 µM: 66.5%
[3]
  MIC: 32 µM (≈ 12.5 µg/mL)
[4]
  IC50: 9.32 µM

## COc1ccc(NC(=O)NC2CCN(c3cc(C)nc4ccc(OC)cc34)CC2)cc1
[1]
  IC50: 9.25 µM
[2]
  inhibition at 48 h, 50 µM: 19.6%
[3]
  MIC: 12.6 µM (≈ 5.29 µg/mL)
[4]
  IC50: 5.86 µM

## COc1ccc2nc(C)cc(N3CCC(NC(=S)Nc4ccccc4)CC3)c2c1
[1]
  IC50: 2.14 µM
[2]
  inhibition at 48 h, 50 µM: 41.9%
[3]
  MIC: 3.81 µM (≈ 1.55 µg/mL)
[4]
  IC50: 0.91 µM

## CO[C@@H]1[C@@H](OC(N)=O)[C@@H](O)[C@H](Oc2ccc3c(O)c(NC(=O)c4ccc(O)c(CC=C(C)C)c4)c(=O)oc3c2C)OC1(C)C [NOVOBIOCIN]
[3]
  MIC: > 200 µM

## COc1ccc2nc(C)cc(N3CCC(NC(=O)Nc4ccc(C)cc4)CC3)c2c1
[1]
  IC50: 11.5 µM
[2]
  inhibition at 48 h, 50 µM: 28.2%
[3]
  MIC: 15.4 µM (≈ 6.25 µg/mL)
[4]
  IC50: 8.63 µM

## COc1ccc(NC(=S)NC2CCN(c3cc(C)nc4ccc(OC)cc34)CC2)cc1
[1]
  IC50: 10.1 µM
[2]
  inhibition at 48 h, 50 µM: 31.8%
[3]
  MIC: 15.8 µM (≈ 6.92 µg/mL)
[4]
  IC50: 6.17 µM

## Cc1ccc(NC(=S)NC2CCN(c3cc(C)nc4ccc(C(F)(F)F)cc34)CC2)cc1
[1]
  IC50: 24.7 µM
[2]
  inhibition at 48 h, 50 µM: 19.3%
[3]
  MIC: 31.7 µM (≈ 14.5 µg/mL)
[4]
  IC50: 5.1 µM

## Cc1cc(N2CCC(NC(=S)Nc3ccccc3)CC2)c2cc(F)ccc2n1
[1]
  IC50: 68.2 µM
[2]
  inhibition at 48 h, 50 µM: 37.4%
[3]
  MIC: 63.3 µM (≈ 25 µg/mL)
[4]
  IC50: 39.4 µM

## Cc1cc(N2CCC(NC(=O)Nc3ccc(F)cc3)CC2)c2ccccc2n1
[1]
  IC50: 34.9 µM
[2]
  inhibition at 48 h, 50 µM: 49.4%
[3]
  MIC: 34.1 µM (≈ 12.9 µg/mL)
[4]
  IC50: 19.7 µM

## COc1ccc(NC(=O)NC2CCN(c3cc(C)nc4ccc(F)cc34)CC2)cc1
[1]
  IC50: 10.1 µM
[2]
  inhibition at 48 h, 50 µM: 49.7%
[3]
  MIC: 7.65 µM (≈ 3.12 µg/mL)
[4]
  IC50: 7.62 µM

## Cc1cc(N2CCC(NC(=S)Nc3ccc(F)cc3)CC2)c2ccccc2n1
[1]
  IC50: 29.8 µM
[2]
  inhibition at 48 h, 50 µM: 32.9%
[3]
  MIC: 36.1 µM (≈ 14.3 µg/mL)
[4]
  IC50: 16.7 µM

## Cc1cc(N2CCC(NC(=O)Nc3ccc(F)cc3)CC2)c2cc(C(F)(F)F)ccc2n1
[1]
  IC50: 19.8 µM
[2]
  inhibition at 48 h, 50 µM: 39.8%
[3]
  MIC: 24.9 µM (≈ 11.1 µg/mL)
[4]
  IC50: 11.8 µM

## Cc1ccc(NC(=O)NC2CCN(c3cc(C)nc4ccccc34)CC2)cc1
[1]
  IC50: 20.5 µM
[2]
  inhibition at 48 h, 50 µM: 51.4%
[3]
  MIC: 24.1 µM (≈ 9.04 µg/mL)
[4]
  IC50: 14.8 µM

## Cc1cc(N2CCC(NC(=O)Nc3ccc(Cl)cc3)CC2)c2cc(C(F)(F)F)ccc2n1
[1]
  IC50: 34 µM
[2]
  inhibition at 48 h, 50 µM: 29.1%
[3]
  MIC: 48.5 µM (≈ 22.5 µg/mL)
[4]
  IC50: 17.3 µM

## COc1ccc(NC(=S)NC2CCN(c3cc(C)nc4ccc(C(F)(F)F)cc34)CC2)cc1
[1]
  IC50: 32.6 µM
[2]
  inhibition at 48 h, 50 µM: 41.8%
[3]
  MIC: 66.9 µM (≈ 31.7 µg/mL)
[4]
  IC50: 34.5 µM

## Cc1ccc(NC(=S)NC2CCN(c3cc(C)nc4ccccc34)CC2)cc1
[1]
  IC50: 7.26 µM
[2]
  inhibition at 48 h, 50 µM: 21.6%
[3]
  MIC: 15.7 µM (≈ 6.12 µg/mL)
[4]
  IC50: 2.66 µM

## Cc1cc(N2CCC(NC(=S)Nc3ccc(F)cc3)CC2)c2cc(C(F)(F)F)ccc2n1
[1]
  IC50: 48.5 µM
[2]
  inhibition at 48 h, 50 µM: 50.7%
[3]
  MIC: 66.5 µM (≈ 30.8 µg/mL)
[4]
  IC50: 22.8 µM

## Cc1cc(N2CCC(NC(=O)Nc3ccccc3)CC2)c2ccccc2n1
[1]
  IC50: 17.3 µM
[2]
  inhibition at 48 h, 50 µM: 33.9%
[3]
  MIC: 25.8 µM (≈ 9.31 µg/mL)
[4]
  IC50: 9.79 µM

## NNC(=O)c1ccncc1 [ISONIAZID]
[3]
  MIC: 0.66 µM (≈ 0.0905 µg/mL)

— ChEMBL document CHEMBL3399993, “Design and synthesis of novel quinoline-aminopiperidine hybrid analogues as Mycobacterium tuberculosis DNA gyraseB inhibitors” (Bioorg Med Chem, 2015)
